Data from patent US20070088024A1, “Active substance combination comprising a carbinol combined to at least an NSAID” (LABORATORIOS DEL DR. ESTEVE S.A., priority 2004, published 2007).

What was measured:
male Swiss albino mice [1] = assay: Writhing test in mice (phenylbenzoquinone-induced writhing reactions); type: in vivo; conditions: for % Activity (inhibition of the writhing reactions): 60 minutes prior to phenylbenzoquinone; for ED50: p.o., in mg/kg
Procedure: The Writhing test for the determination of the analgesic activity of the inventive active substance combination is carried out according to the method described in the publication of E. Siegmund et al., Proc. Soc. Exp. Biol. Med. 1957, 95, 729-731 using male Swiss albino mice (20-25 g body weight, obtained from Harlan, S. Feliu de Codinas, Spain). The respective part of the description is hereby incorporated by reference and forms part of the respective disclosure.
The Writhing reactions are induced by intraperitoneal injection of phenylbenzoquinone (25 ml/kg in a 0.02% (volume/volume) ethanolic solution in a 5% (volume/volume) solution in destillated water with Evan's blue in an amount of 0.1% weight/volume) and the writhing reactions are counted during a 15 minute period following the injection. The substances to be tested are orally administered 60 minutes prior to the injection of the phenylbenzoquinone solution. The percentage of the inhibition of the writhing reactions is calculated on the basis of the control group as basis for 0% inhibition.

male Swiss albino mice [2] = assay: Formaline test in mice; type: in vivo; conditions: 40 mg/kg i.p.
Procedure: The Formaline test for the determination of the analgesic activity of the inventive active substance combination is carried out according to the method described in the publication of T. Ohkubo et al., J. Pharmacol. Exp. Ther. 1990, 252, 1261-1268 using male Swiss albino mice (20-25 g body weight, obtained from Harlan, S. Feliu de Codinas, Spain). The respective part of the description is hereby incorporated by reference and forms part of the respective disclosure.
The substances to be tested are intraperitoneally administered to the mice in 5% by weight solution of arabic gum in destined water as vehicle. 15 minutes later 20 μl of a 5% by weight solution of formaline in saline solution is injected into the back of the right paw of the animals. The total time in seconds of licking and/or biting the injected paw is registered in the acute phase, i.e. 0-5 minutes (phase I), and in the chronic phase, i.e. 15-30 (phase II), minutes after injection of the formaline.
The percentage of inhibition is calculated based on the medium values of the acute and chronic phases of the control group as 0% inhibition of the primary and secondary response.

Structure (SMILES) | % Activity (inhibition of the writhing reactions) (male Swiss albino mice [1]; 40 mg/kg p.o.) | % Activity (inhibition of the writhing reactions) (male Swiss albino mice [1]; 80 mg/kg p.o.) | % Activity (inhibition of the writhing reactions) (male Swiss albino mice [1]; 160 mg/kg p.o.) | ED50 (male Swiss albino mice [1]) | % Activity Phase I (male Swiss albino mice [2]; acute phase 0-5 minutes) | % Activity Phase II (male Swiss albino mice [2]; chronic phase 15-30 minutes)
CN(C)CCO[C@H](c1ccccc1)c1ccnn1C.O=C(O)Cc1ccccc1Nc1c(Cl)cccc1Cl [R-(+)-Cizolirtine diclofenacate, R-(+)-5-[α-[2-(Dimethylamino)ethoxy]benzyl]-1-methyl-1H-pyrazole diclofenacate] | 14.7% | 57.3% | 72.1% | 84 |  | 
CC(C)Cc1ccc([C@H](C)C(=O)O)cc1.CN(C)CCO[C@H](c1ccccc1)c1ccnn1C [R-(+)-Cizolirtine ibuprofenate, R-(+)-5-[α-[2-(Dimethylamino)ethoxy]benzyl]-1-methyl-1H-pyrazole S-(+)-ibuprofenate] | 15.9% | 45% | 80.9% | 84.8 |  | 
CN(C)CCO[C@H](c1ccccc1)c1ccnn1C.COc1ccc2cc([C@H](C)C(=O)O)ccc2c1 [R-(+)-Cizolirtine naproxenate, R-(+)-5-[α-[2-(Dimethylamino)ethoxy]benzyl]-1-methyl-1H-pyrazole naproxenate] | 32.0% | 52.0% | 77.3% | 71.29 | 49% | 36%
CN(C)CCO[C@@H](c1ccccc1)c1ccnn1C.COc1ccc2cc([C@H](C)C(=O)O)ccc2c1 [S-(−)-Cizolirtine naproxenate, S-(−)-5-[α-[2-(Dimethylamino)ethoxy]benzyl]-1-methyl-1H-pyrazole naproxenate] | 26.7% | 52.4% | 68.5% | 82.15 |  | 
CN(C)CCO[C@@H](c1ccccc1)c1ccnn1C [S-(−)-Cizolirtine, S-(−)-5-[α-[2-(Dimethylamino)ethoxy]benzyl]-1-methyl-1H-pyrazole] | 29.0% | 49.7% | 59.7% | 95.26 |  | 
